We go through 20 compounds from US20050256132A1, “Use of ER selective NF-kB inhibitors for the treatment of sepsis” (priority 2003, published 2005).

SMILES strings stand for the structures. Structures can show the parent of a compound that is named as a salt.

Series [1] relates to ER/IL-6. As to the kind of experiment: Endothelial Cell ER/IL-6 Assay, IL-6 promoter luciferase (Table 2). In kind it is cell-based, human. Conditions: Homo sapiens, HAECT1, ERα infected HAECT-1 cells, IL-1β; for Emax: read-out: IL6 luc % Efficacy; for IC50: read-out: IL6 luc IC50. As for the experimental part: T-175 flasks of 100% confluent HAECT-1 cells (immortalized human aortic endothelial cells) were washed with 8 ml of HBSS (HEPES buffered saline solution) and infected for fours hours with 6 ml of a 1:10 dilution of Ad5-wt-hERα virus (an adenovirus transfection vector that mediates CMV promoter driven expression of human ERα) in phenol red free Endothelial Cell Basal medium (Clonetics, San Diego, Calif., Catalog # CC-3129) containing 0.25% bovine serum albumin (EDM-BSA). After four hours, cells were washed with EDM-BSA and incubated overnight in the same medium. Following overnight incubation, cells were washed with EDM-BSA and infected for 2 hours with 6 ml of a 1:10 dilution of Ad5-3x(NFκB).Luc virus (Adenovirus luciferase expression vector driven by three repeats of the MHC NFκb sites 5′ to the thymidine kinase promoter) in EDM-BSA. After two hours, cells were washed and incubated at 34° C. for one hour. Cells were then washed, trypsinized, counted, and resuspended in 95% FBS/5% dimethylsulfoxide at a concentration of […], frozen as 1 or 5 ml aliquots in cryo-vials and stored at −150° C. Control (no ER infection) cells were processed as above without Ad5-wt-hERα virus infection.
ERα infected HAECT-1 cells or control cells were thawed, diluted 42× in warm EBM-BSA, plated into 96-well plates at 0.1 ml/well and incubated for 4 hours at 34° C. Test compounds were added to the cells at 2× stocks in EBM-BSA containing 2 ng/ml IL-1β Ad6-IL-6(1250 bp).Luc virus and plates were returned to the incubator (34° C.). After […], cells were lysed with 50 μl of Promega Cell Culture Lysis reagenet for about 5 minutes at room temperature on a shaker. After lysing, 15 μl of lysate is transferred to luminometer plates for luciferase determination. Luciferase activity is evaluated using a Perkin Elmer Victor2 1420 multilabel counter. Creatine kinase was determined from the rate of increase in A340 following addition of 100 μl of CK assay reagent (Sigma catalog no. 47-10) to the remainder of the cell lysate.
For IC50 and EC50 calculations, mean IL-6, luciferase or CK values versus log10 of the compound concentration were fitted to a four parameter logistic equation. The IC50/EC50 value, ‘Hill slope,’ upper and lower limits of the curve were iteratively estimated.

For `C[C@@](C#N)(C(=O)O)[C@H](c1ccccc1C(F)(F)F)c1cccc2ccccc12` (racemic), the melting point (as a rule, the temperature of the solid-liquid transition) is 220 °C (dec.).

In the case of `CCN(CC)CC[C@](C#N)(C(=O)OC)[C@H](c1ccccc1OC)c1cccc2ccccc12` (relative stereo) (as salt: HCl) [Example 148, Methyl (2S*)-2-cyano-4-(diethylamino)-2-[(S*)-(2-methoxyphenyl)(1-naphthyl)methyl]butanoate], the melting point was 174 °C (dec.).

For `COC(=O)[C@@](C#N)(Cc1ccncc1)[C@H](c1ccccc1OC)c1cccc2ccccc12` (relative stereo) [Example 142, Methyl (2S*,3S*)-2-cyano-3-(2-methoxyphenyl)-3-(1-naphthyl)-2-(pyridin-4-ylmethyl)propanoate], the melting point is 228 to 230 °C (dec.). Also, in series [1], the Emax came to 103% and the half-maximal inhibitory concentration (IC50) – broadly, the midpoint of a concentration-inhibition curve – stood at 69 nM.

`COC(=O)[C@@](C#N)(Cc1cccnc1)[C@H](c1ccccc1OC)c1cccc2ccccc12` (relative stereo) [Example 145, Methyl (2S*,3S*)-2-cyano-3-(2-methoxyphenyl)-3-(1-naphthyl)-2-(pyridin-3-ylmethyl)propanoate] yielded a melting point of 160 to 164.4 °C. The Emax in series [1] was found to be 102%.

`COC(=O)[C@@](C#N)(COCc1ccccc1)[C@H](c1ccccc1OC)c1cccc2ccccc12` (relative stereo) [Example 146, Methyl (2S*,3S*)-2-[(benzyloxy)methyl]-2-cyano-3-(2-methoxyphenyl)-3-(1-naphthyl)propanoate] registered a melting point of 132.9 to 134.4 °C. In series [1], the Emax was determined as 135% and the IC50 amounted to 5.5 nM.

In turn, `COC[C@](C#N)(C(=O)OC(C)(C)C)[C@H](c1ccccc1OC)c1cccc2ccccc12` (relative stereo) [Example 149, tert-Butyl (2S*,3S*)-2-cyano-2-(methoxymethyl)-3-(2-methoxyphenyl)-3-(1-naphthyl)propanoate] came in with a melting point of 163 to 165.3 °C. Moreover, in series [1], the Emax was 102% and the IC50 was 18 nM.

In turn, `COc1ccccc1[C@H](c1cccc2ccccc12)[C@](C#N)(COCc1ccccc1)C(=O)OC(C)(C)C` (relative stereo) [Example 154, tert-Butyl (2S*,3S*)-2-[(benzyloxy)methyl]-2-cyano-3-(2-methoxyphenyl)-3-(1-naphthyl)propanoate] gave a melting point of 166 to 170 °C. Further, in series [1], the Emax came out at 87% and the half-inhibitory concentration (IC50) stood at 6 nM.

`COc1ccccc1[C@@H](c1cccc2ccccc12)[C@](C#N)(COCc1ccccc1)C(=O)N1CCN(CCCN(C)C)CC1` (relative stereo) [Example 205, (2S*)-2-[(benzyloxy)methyl]-3-{4-[3-(dimethylamino)propyl]piperazin-1-yl}-2-[(R*)-(2-methoxyphenyl)(1-naphthyl)methyl]-3-oxopropanenitrile] gave a melting point of 192 to 193 °C. Moreover, in series [1], the Emax worked out at 58% and the IC50 came out at 334 nM.

Regarding `COc1ccccc1[C@H](c1cccc2ccccc12)[C@@](C)(C#N)C(=O)N1CCN(c2ccncc2)CC1` [Example 133, (2S,3S)-3-(2-methoxyphenyl)-2-methyl-3-(1-naphthyl)-2-[(4-pyridin-4-ylpiperazin-1-yl)carbonyl]propanenitrile], the melting point is 142 to 144 °C. Also, in series [1], the Emax worked out at 81% and the IC50 came to 206 nM.

The compound `COc1ccccc1[C@H](c1cccc2ccccc12)[C@@](C)(C#N)C(=O)N1CCC(N2C(=O)CCc3ccccc32)CC1` [Example 134, (2S,3S)-3-(2-methoxyphenyl)-2-methyl-3-(1-naphthyl)-2-{[4-(2-oxo-3,4-dihydroquinolin-1(2H)-yl)piperidin-1-yl]carbonyl}propanenitrile] registered a melting point of 265 to 267 °C. Further, in series [1], the Emax was 85% and the 50% inhibitory concentration (IC50) is 612 nM.

`COc1ccccc1[C@H](c1cccc2ccccc12)[C@@](C)(C#N)C(=O)N1CC=C(c2ccc(Br)cc2)CC1` [Example 135, (2S)-3-[4-(4-bromophenyl)-3,6-dihydropyridin-1(2H)-yl]-2-[(S)-(2-methoxyphenyl)(1-naphthyl)methyl]-2-methyl-3-oxopropanenitrile] showed a melting point of 136 to 139 °C. Besides, in series [1], the Emax came out at 119% and the IC50 stood at 65 nM.

In the case of `COc1ccccc1[C@H](c1cccc2ccccc12)[C@@](C)(C#N)C(=O)N1CCN(c2cccc(C(F)(F)F)c2)CC1` [Example 136, (2S,3S)-3-(2-methoxyphenyl)-2-methyl-3-(1-naphthyl)-2-({4-[3-(trifluoromethyl)phenyl]piperazin-1-yl}carbonyl)propanenitrile], the melting point lay within 158 to 162 °C. For the same compound, in series [1], the Emax stood at 142% and the IC50 turned out to be 63 nM.

In turn, `COc1ccccc1[C@H](c1cccc2ccccc12)[C@@](C)(C#N)C(=O)N1CCC(C2CCCC(C(F)(F)F)C2)CC1` (stereo partly drawn) [Example 139, (2S,3S)-3-(2-methoxyphenyl)-2-methyl-3-(1-naphthyl)-2-({4-[3-(trifluoromethyl)cyclohexyl]piperidin-1-yl}carbonyl)propanenitrile] gave a melting point of 160 to 165 °C. Moreover, in series [1], the Emax turned out to be 98% and the half-maximal inhibitory concentration (IC50) was 113 nM.

Compound `COC[C@](C#N)(C(=O)OC)[C@H](c1ccccc1OC)c1cccc2ccccc12` [Example 150, Methyl (2S,3S)-2-cyano-2-(methoxymethyl)-3-(2-methoxyphenyl)-3-(1-naphthyl)propanoate] showed a melting point of 176 to 178 °C.

On to `COC(=O)[C@@](C#N)(Cc1cccnc1)[C@H](c1ccccc1OC)c1cccc2ccccc12` [Example 156, Methyl (2S,3S)-2-cyano-3-(2-methoxyphenyl)-3-(1-naphthyl)-2-(pyridin-3-ylmethyl)propanoate], for which the melting point is 193 °C (dec.). Also, in series [1], the Emax is 73%.

`COc1ccccc1C(c1ccnc2ccccc12)C(C)(C#N)C(=O)N1CCC(c2cccc(C(F)(F)F)c2)CC1` (stereo not shown) [Example 161, 3-(2-Methoxyphenyl)-2-methyl-3-quinolin-4-yl-2-({4-[3-(trifluoromethyl)phenyl]piperidin-1-yl}carbonyl)propanenitrile] gave a melting point of 163 to 165 °C. Moreover, in series [1], the Emax came out at 122% and the concentration for half-maximal inhibition (IC50) was determined as 798 nM.

Compound `COc1ccccc1[C@H](c1cccc2ccccc12)[C@@](C)(C#N)C(=O)N1CC=C(c2c[nH]c3ccccc23)CC1` [Example 182, (2S)-3-[4-(1H-indol-3-yl)-3,6-dihydropyridin-1(2H)-yl]-2-[(s)-(2-methoxyphenyl)(1-naphthyl)methyl]-2-methyl-3-oxopropanenitrile] registered a melting point of 229 to 231 °C. Further, in series [1], the Emax came to 74% and the half-inhibitory concentration (IC50) came to 45 nM.

As to `COc1ccccc1[C@H](c1cccc2ccccc12)[C@@](C)(C#N)C(=O)N1CCC2(CC1)C(=O)NCN2c1ccccc1` [Example 184, (2S,3S)-3-(2-methoxyphenyl)-2-methyl-3-(1-naphthyl)-2-[(4-oxo-1-phenyl-1,3,8-triazaspiro[4.5]dec-8-yl)carbonyl]propanenitrile], the melting point lay within 176 to 178 °C. Also, in series [1], the Emax is 88% and the IC50 worked out at 445 nM.

As for `COc1ccccc1[C@H](c1cccc2ccccc12)[C@@](C)(C#N)C(=O)N1CCC(c2cccc(C(F)(F)F)c2)C(O)C1` (stereo partly drawn) [Example 185, (2S)-3-{3-hydroxy-4-[3-(trifluoromethyl)phenyl]piperidin-1-yl}-2-[(S)-(2-methoxyphenyl)(1-naphthyl)methyl]-2-methyl-3-oxopropanenitrile], the melting point amounted to 259 °C. For the same compound, in series [1], the Emax worked out at 116% and the IC50 was 288 nM.

Turning to `COc1ccccc1[C@H](c1cccc2ccccc12)[C@@](C)(C#N)C(=O)N1CCc2[nH]c3ccc(F)cc3c2C1` [Example 189, (2S)-3-(8-fluoro-1,3,4,5-tetrahydro-2H-pyrido[4,3-b]indol-2-yl)-2-[(S)-(2-methoxyphenyl)(1-naphthyl)methyl]-2-methyl-3-oxopropanenitrile], the melting point lay within 172 to 174 °C. Moreover, in series [1], the Emax is 103% and the concentration for half-maximal inhibition (IC50) came out at 348 nM.
